Experimental data as given in the supplement of paper PMC11281043.
± gives the standard deviation of the averaged measurements.

Columns and labels:
Conditions in all cases: exposure: 6-8 hpf to 5 dpf, scored at 6 dpf
Danio rerio embryo/larva [1] = experiment: max % larvae with edema across tested concentrations; higher = more toxic; extreme values may be limits of the assay
Danio rerio embryo/larva [2] = experiment: max % larvae with tail defects across tested concentrations; higher = more toxic; extreme values may be limits of the assay
Danio rerio embryo/larva [3] = experiment: max % larvae generally abnormal across tested concentrations; higher = more toxic; extreme values may be limits of the assay
Danio rerio embryo/larva [4] = experiment: max % larvae with uninflated swim bladder across tested concentrations; higher = more toxic; extreme values may be limits of the assay
Danio rerio embryo/larva [5] = experiment: max % larvae with craniofacial defects across tested concentrations; higher = more toxic; extreme values may be limits of the assay
Danio rerio embryo/larva [6] = experiment: max % larvae with spinal defects across tested concentrations; higher = more toxic; extreme values may be limits of the assay
Danio rerio embryo/larva [7] = experiment: max % larvae with blood pooling across tested concentrations; higher = more toxic; extreme values may be limits of the assay
Danio rerio embryo/larva [8] = experiment: max % larvae with abnormal position across tested concentrations; higher = more toxic; extreme values may be limits of the assay
Danio rerio embryo/larva [9] = experiment: max % larvae with pigmentation defects across tested concentrations; higher = more toxic

Compound | max % larvae (Danio rerio embryo/larva [1]) | max % larvae (Danio rerio embryo/larva [2]) | max % larvae generally abnormal across tested concentrations (Danio rerio embryo/larva [3]) | max % larvae (Danio rerio embryo/larva [4]) | max % larvae (Danio rerio embryo/larva [5]) | max % larvae (Danio rerio embryo/larva [6]) | max % larvae (Danio rerio embryo/larva [7]) | max % larvae (Danio rerio embryo/larva [8]) | max % larvae (Danio rerio embryo/larva [9])
C=CC(=O)OCC(F)(F)C(F)(F)C(F)(F)COC(=O)C=C [1H,1H,5H,5H-Perfluoro-1,5-pentanediol diacrylate] (max tested concentration (log10 uM): 1) | 33.3% | 25% | 33.3% | 16.7% | 33.3% | 8.33% | 0% | 0% | 0%
OCC(F)(F)C(F)(F)C(F)(F)C(F)F [1H,1H,5H-Perfluoropentanol] (max tested concentration (log10 uM): 2) | 0% | 0% | 0% | 0% | 0% | 0% | 0% | 0% | 0%
C=C(C)C(=O)OCC(F)(F)C(F)(F)C(F)(F)C(F)F [1H,1H,5H-Perfluoropentyl methacrylate] (max tested concentration (log10 uM): 2) | 25% | 16.7% | 25% | 33.3% | 16.7% | 4.17% | 0% | 0% | 0%
OCC(F)(F)C(F)(F)C(F)(F)C(F)(F)C(F)(F)C(F)F [1H,1H,7H-Dodecafluoro-1-heptanol] (max tested concentration (log10 uM): 2) | 8.33% | 0% | 8.33% | 0% | 0% | 0% | 0% | 0% | 0%
OCC(F)(F)OC(F)(F)C(F)(F)OC(F)(F)CO [1H,1H,8H,8H-Perfluoro-3,6-dioxaoctane-1,8-diol] (max tested concentration (log10 uM): 2) | 0% | 0% | 0% | 0% | 0% | 0% | 0% | 0% | 0%
C=CC(=O)OCC(F)(F)C(F)(F)C(F)(F)C(F)(F)C(F)(F)C(F)(F)C(F)(F)C(F)F [1H,1H,9H-Perfluorononyl acrylate] (max tested concentration (log10 uM): 2) | 9.09% | 2.27% | 9.09% | 16.7% | 9.09% | 0% | 0% | 4.55% | 0%
OCC(F)(F)OC(F)(F)C(F)(F)OC(F)(F)C(F)(F)OC(F)(F)CO [1H,1H,11H,11H-Perfluorotetraethylene glycol] (max tested concentration (log10 uM): 1.47712) | 0% | 0% | 0% | 0% | 0% | 0% | 0% | 0% | 0%
NCC(F)(F)C(F)(F)C(F)(F)C(F)(F)C(F)(F)C(F)(F)C(F)(F)C(F)(F)F [1H,1H-Perfluorononylamine] (max tested concentration (log10 uM): 1.60206) | 50% | 0% | 75% | 50% | 50% | 0% | 50% | 25% | 0%
C=CC(=O)OCC(F)(F)C(F)(F)C(F)(F)C(F)(F)C(F)(F)C(F)(F)C(F)(F)F [1H,1H-Perfluorooctyl acrylate] (max tested concentration (log10 uM): 2) | 0% | 0% | 0% | 0% | 0% | 0% | 0% | 0% | 0%
NCC(F)(F)C(F)(F)C(F)(F)C(F)(F)C(F)(F)C(F)(F)C(F)(F)F [1H,1H-Perfluorooctylamine] (max tested concentration (log10 uM): 2) | 22.5 ± 32% | 0% | 20 ± 28% | 20 ± 28% | 15 ± 21% | 0% | 0% | 0% | 0%
FC(F)(F)C(F)(F)C(F)(F)C(F)(F)C(F)(F)C(F)(F)CCS [2-(Perfluorohexyl)ethanethiol] (max tested concentration (log10 uM): 1.60206) | 8.33% | 0% | 8.33% | 16.7% | 0% | 0% | 0% | 0% | 0%
C=C(C)C(=O)OCCC(F)(F)C(F)(F)C(F)(F)C(F)(F)C(F)(F)C(F)(F)F [2-(Perfluorohexyl)ethyl methacrylate] (max tested concentration (log10 uM): 2) | 0% | 0% | 0% | 0% | 0% | 0% | 0% | 0% | 0%
OCCC(F)(F)C(F)(F)C(F)(F)C(F)(F)C(F)(F)C(F)(F)C(F)(F)C(F)(F)F [2-(Perfluorooctyl)ethanol] (max tested concentration (log10 uM): 2) | 19.4% | 0% | 22.2% | 44.4% | 0% | 0% | 0% | 8.33% | 0%
FC(F)(F)C(F)(F)C(F)(F)C(F)(F)C(F)(F)C(F)(F)C(F)(F)C(F)(F)CCS [2-(Perfluorooctyl)ethanthiol] (max tested concentration (log10 uM): 1.60206) | 8.33% | 0% | 8.33% | 8.33% | 0% | 0% | 0% | 0% | 0%
C=CC(=O)OCCC(F)(F)C(F)(F)C(F)(F)C(F)(F)C(F)(F)C(F)(F)C(F)(F)C(F)(F)F [2-(Perfluorooctyl)ethyl acrylate] (max tested concentration (log10 uM): 2) | 0% | 0% | 0% | 0% | 0% | 0% | 0% | 0% | 0%
C=C(C)C(=O)OCCC(F)(F)C(F)(F)C(F)(F)C(F)(F)C(F)(F)C(F)(F)C(F)(F)C(F)(F)F [2-(Perfluorooctyl)ethyl methacrylate] (max tested concentration (log10 uM): 2) | 0% | 0% | 0% | 0% | 0% | 0% | 0% | 0% | 0%
FC(F)(F)C(F)(C(F)(F)F)C(F)(F)C(F)(F)CC1CO1 (stereo not given) [3-(Perfluoro-3-methylbutyl)-1,2-propenoxide] (max tested concentration (log10 uM): 1.60206) | 0% | 0% | 0% | 0% | 0% | 0% | 0% | 0% | 0%
O=C(O)C=CC(F)(C(F)(F)F)C(F)(F)F [3-(Perfluoroisopropyl)-2-propenoic acid] (max tested concentration (log10 uM): 2) | 16.7% | 8.33% | 16.7% | 16.7% | 16.7% | 8.33% | 16.7% | 8.33% | 0%
OCCCC(F)(F)C(F)(F)C(F)(F)C(F)(F)C(F)(F)C(F)(F)C(F)(F)C(F)(F)F [3-(Perfluorooctyl)propanol] (max tested concentration (log10 uM): 2) | 0% | 0% | 0% | 0% | 0% | 0% | 0% | 0% | 0%
OCC(F)(F)C(F)(F)C(F)(F)F [3:1 Fluorotelomer alcohol] (max tested concentration (log10 uM): 2) | 8.33% | 0% | 8.33% | 0% | 0% | 0% | 8.33% | 0% | 0%
O=C(O)CCC(F)(C(F)(F)F)C(F)(F)F [4,4-bis(Trifluoromethyl)-4-fluoropropanoic acid] (max tested concentration (log10 uM): 2) | 0% | 0% | 0% | 0% | 0% | 0% | 0% | 0% | 0%
OCCC(F)(F)C(F)(F)C(F)(F)C(F)(F)F [4:2 Fluorotelomer alcohol] (max tested concentration (log10 uM): 2) | 4.17% | 0% | 4.17% | 0% | 0% | 0% | 0% | 0% | 0%
O=S(=O)(O)CCC(F)(F)C(F)(F)C(F)(F)C(F)(F)F [4:2 Fluorotelomer sulfonic acid] (max tested concentration (log10 uM): 2) | 0% | 0% | 0% | 0% | 0% | 0% | 0% | 0% | 0%
O=C(O)C(F)(F)C(F)(F)C(F)F [4H-Perfluorobutanoic acid] (max tested concentration (log10 uM): 2) | 0% | 0% | 0% | 0% | 0% | 0% | 0% | 0% | 0%
O=P(O)(O)OCCC(F)(F)C(F)(F)C(F)(F)C(F)(F)C(F)(F)C(F)(F)F [6:2 Fluorotelomer phosphate monoester] (max tested concentration (log10 uM): 2) | 0% | 0% | 0% | 0% | 0% | 0% | 0% | 0% | 0%
O=S(=O)(O)CCC(F)(F)C(F)(F)C(F)(F)C(F)(F)C(F)(F)C(F)(F)C(F)(F)C(F)(F)F [8:2 Fluorotelomer sulfonic acid] (max tested concentration (log10 uM): 2) | 0% | 0% | 0% | 0% | 0% | 0% | 0% | 0% | 0%
O=C(O)C(F)(F)C(F)(F)C(F)(F)C(F)(F)C(F)(F)C(F)(F)C(F)F [8H-Perfluorooctanoic acid] (max tested concentration (log10 uM): 2) | 0% | 4.17% | 8.33% | 16.7% | 0% | 0% | 0% | 0% | 0%
O=C(O)C(F)(F)C(F)(F)C(F)(F)C(F)(F)C(F)(F)C(F)(F)C(F)(F)C(F)F [9H-Perfluorononanoic acid] (max tested concentration (log10 uM): 2) | 10.4% | 0% | 10.4% | 16.7% | 0% | 0% | 0% | 2.08% | 0%
OCC(F)(F)C(F)(F)C(F)(F)C(F)(F)C(F)(F)C(F)(F)C(F)(F)C(F)(F)C(F)(F)C(F)(F)C(F)(F)F [11:1 Fluorotelomer alcohol] (max tested concentration (log10 uM): 1.30103) | 0% | 0% | 0% | 0% | 0% | 0% | 0% | 0% | 0%
C=C(C)C(=O)OCCC(F)(F)C(F)(F)C(F)(F)C(F)(F)C(F)(C(F)(F)F)C(F)(F)F [(Perfluoro-5-methylhexyl)ethyl 2-methylprop-2-enoate] (max tested concentration (log10 uM): 2) | 0% | 0% | 0% | 0% | 0% | 0% | 0% | 0% | 0%
